{"source": "patent US20260265305A1", "about": "“POLYPEPTIDE DERIVATIVE FOR ORAL DELIVERY” (Hangzhou Sciwind Biosciences Co., Ltd., priority 2023, published 2026)", "key": {"[1]": {"conditions": "dog, in vivo, 7 mg", "description": "Whole blood of the animals was collected pre dose (−10 min) and 2 h, 4 h, and 8 h post dose on Day 1, pre dose (−10 min) and 2 h and 4 h post dose on Day 2-Day 4, and pre dose (−10 min) and 2 h, 4 h, 8 h, 24 h, 48 h, and 72 h post dose on Day 5, and processed into plasma using heparin sodium as an anticoagulant. […] Experimental data was plotted using GraphPad Prism9.3.1."}, "amylin receptor (hAMY3R) [2]": {"biological_target": "T1, amylin receptor (hAMY3R) (Homo sapiens, UniProt O60896+P30988)", "T1 construct": "host or cells: CHO-K1/Ga15/AMY3 cells, further stably transfected with a CRE-luciferase plasmid", "T1 sequence (P30988 25-474)": "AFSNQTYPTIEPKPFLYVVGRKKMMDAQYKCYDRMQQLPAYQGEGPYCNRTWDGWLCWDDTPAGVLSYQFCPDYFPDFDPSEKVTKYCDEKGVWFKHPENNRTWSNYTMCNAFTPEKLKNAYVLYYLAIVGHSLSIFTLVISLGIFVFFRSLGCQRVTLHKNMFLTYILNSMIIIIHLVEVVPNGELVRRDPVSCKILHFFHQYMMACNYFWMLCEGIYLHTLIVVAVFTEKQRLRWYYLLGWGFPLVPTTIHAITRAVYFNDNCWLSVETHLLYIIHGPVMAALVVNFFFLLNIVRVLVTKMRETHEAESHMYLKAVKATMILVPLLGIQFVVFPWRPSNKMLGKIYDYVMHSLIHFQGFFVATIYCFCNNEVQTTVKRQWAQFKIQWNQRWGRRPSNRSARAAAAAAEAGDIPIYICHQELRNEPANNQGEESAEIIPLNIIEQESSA", "T1 sequence (O60896 24-148)": "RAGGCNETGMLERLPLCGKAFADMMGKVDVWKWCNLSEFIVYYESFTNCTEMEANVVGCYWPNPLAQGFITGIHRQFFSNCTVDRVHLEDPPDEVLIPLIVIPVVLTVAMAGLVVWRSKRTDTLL", "experiment": "Amylin receptor agonism testing, CRE-luciferase assay in stably transfected CHO-K1/Ga15/AMY3 cells", "assay_type": "cell-based", "conditions": "incubation of 4 hours (N2 and N3 retested); Table 3 lower part; read-out: EC50, activity against the amylin receptor in cells", "excerpt": "The objective of this assay is to test the potency of the polypeptide derivatives in the present application on amylin and calcitonin receptors in vitro using a luciferase assay.\nUsing the standard protocol for construction of an amylin receptor/CRE-luc cell line, CHO-K1/Ga15/AMY3 cells (purchased from GenScript, with the calcitonin receptor and the receptor activity modifying peptide (RAMP) constructed already) were transfected with a plasmid containing a luciferase expression cassette driven by multiple copies of cAMP response elements (CREs). The cells were cultured in an F12 medium containing 200 ug/mL Zeocin, 2 ug/mL puromycin, 100 ug/mL hygromycin, and 400 ug/mL G418 to afford a stably transfected amylin receptor/CRE-luc cell line.\nTo each well of a white 96-well plate was added 50 μL of the tested sample solution at a respective concentration.\nThe stably transfected amylin receptor/CRE-luc CHO cells were resuspended in the growth medium at a certain density, and 50 μL of the cell suspension was added at a density of about 20,000 cells per well to the white 96-well plate containing the tested sample solution. After incubation of 24 hours at 37° C. and 5% CO2, 100 μL of a Luciferase substrate was added to each well, incubated for 3 minutes, and finally was tested for luminescence on SpectraMax L (Molecular Devices) with the software SoftMax Pro 7.0.3 GxP. A standard curve was plotted using the fluorescent intensities for calculation of EC50."}, "[3]": {"experiment": "Efficacy assay in SD rats, dose-dependent study, single subcutaneous dose", "assay_type": "in vivo", "conditions": "Table 9", "source_text": "[…] Food intake was the amount of food consumed by each of the animals per day."}, "[4]": {"experiment": "Heat accelerated stability assay of polypeptide solutions (40° C., pH about 7.4), reversed phase chromatography", "assay_type": "physicochemical", "summary_of_the_method": "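Polypeptide derivative lyophilisate (1 mg/mL) with sodium dihydrogen phosphate (1.42 mg/mL) in water, pH about 7.4, sterile-filtered, vialed and held at 40° C; sampled on days 7 and 26. After centrifugation, concentration and purity (target/total peak area) by C18 RP-HPLC, TFA/ACN gradient, 280 and 214 nm.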"}, "amylin receptor (hAMY3R) [5]": {"biological_target": "T2, amylin receptor (hAMY3R) (human (printed as hAMY3R), UniProt P30988 25-474; O60896 24-148)", "T2 sequence (looked up) 1": "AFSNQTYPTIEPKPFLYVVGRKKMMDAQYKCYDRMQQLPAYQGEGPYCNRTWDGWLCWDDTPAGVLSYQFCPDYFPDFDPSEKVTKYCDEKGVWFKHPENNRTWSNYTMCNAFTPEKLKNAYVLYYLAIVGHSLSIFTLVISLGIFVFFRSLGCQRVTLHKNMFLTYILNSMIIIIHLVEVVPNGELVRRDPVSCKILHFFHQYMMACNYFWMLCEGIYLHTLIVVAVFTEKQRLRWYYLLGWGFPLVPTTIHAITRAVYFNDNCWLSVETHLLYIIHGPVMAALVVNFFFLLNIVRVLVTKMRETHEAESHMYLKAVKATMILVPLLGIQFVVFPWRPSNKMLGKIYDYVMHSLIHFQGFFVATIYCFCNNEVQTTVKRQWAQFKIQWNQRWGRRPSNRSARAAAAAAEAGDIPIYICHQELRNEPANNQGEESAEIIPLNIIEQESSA", "T2 sequence (looked up) 2": "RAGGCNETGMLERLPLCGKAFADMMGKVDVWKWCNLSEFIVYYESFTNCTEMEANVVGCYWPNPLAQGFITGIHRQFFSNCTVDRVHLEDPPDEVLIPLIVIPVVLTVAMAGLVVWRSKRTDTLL", "experiment": "cell-based or functional assay"}}, "note": "Numbered stars: 1 amine (or outer) side, 2 acyl side, 3 side chain; on linkers, the order of the positions; unused ones are H or OH. Bridge positions count the residues as written; N and C are the ends. Square brackets hold non-standard residues; d marks the D form. Ends that are not written are not given here. Peptide text beside a SMILES is read from it. * marks the point of attachment. C20 diacid = O=C(O)CCCCCCCCCCCCCCCCCCC(=O)*; C18 diacid = O=C(O)CCCCCCCCCCCCCCCCC(=O)*; βAsp = O=C(O)[C@H](CC(=O)[*:2])N[*:1]; Hyp = O=C(O)[C@@H]1C[C@@H](O)CN1; AEEA = NCCOCCOCC(=O)O", "data": [{"molecule": "CC[C@H](C)[C@H](NC(=O)[C@@H]1CCCN1C(=O)[C@H](CCCCN)NC(=O)[C@H](CC(C)C)NC(=O)[C@H](CC(N)=O)NC(=O)[C@H](CC(N)=O)NC(=O)[C@H](CO)NC(=O)[C@H](CO)NC(=O)[C@H](Cc1c[nH]cn1)NC(=O)[C@H](CCCNC(=N)N)NC(=O)[C@H](CC(C)C)NC(=O)[C@H](Cc1ccccc1)NC(=O)[C@H](CC(=O)O)NC(=O)[C@H](C)NC(=O)[C@H](CC(C)C)NC(=O)[C@H](CCCNC(=N)N)NC(=O)[C@H](CCC(N)=O)NC(=O)[C@@H](NC(=O)[C@H](C)NC(=O)[C@@H]1CSSC[C@H](NC(=O)[C@H](CCCCN)NC(=O)COCCOCCNC(=O)COCCOCCNC(=O)C[C@H](NC(=O)CCCCCCCCCCCCCCCCC(=O)O)C(=O)O)C(=O)N[C@@H](CC(N)=O)C(=O)N[C@@H]([C@@H](C)O)C(=O)N[C@@H](C)C(=O)N[C@@H]([C@@H](C)O)C(=O)N1)[C@@H](C)O)C(=O)N[C@@H](CC(C)C)C(=O)N1CCC[C@H]1C(=O)N1CCC[C@H]1C(=O)N[C@H](C(=O)N[C@@H](CC(N)=O)C(=O)N[C@H](C(=O)NCC(=O)N[C@@H](CO)C(=O)N[C@@H](CC(N)=O)C(=O)N[C@H](C(=O)N1C[C@H](O)C[C@H]1C(N)=O)[C@@H](C)O)C(C)C)[C@@H](C)O", "note": "[N3] ({C18 diacid-βAsp-AEEA-AEEA}-KCNTATCATQRLADFLRHSSNNLKPILPPTNVGSNT[Hyp]-NH2; disulfide 2-7)", "values": [{"measurement": "oral bioavailability", "setting": "[1]", "value": "significantly improving the bioavailability"}, {"measurement": "EC50", "setting": "amylin receptor (hAMY3R) [2]", "value": 0.001, "unit": "nM"}]}, {"molecule": "CC[C@H](C)[C@H](NC(=O)[C@@H]1CCCN1C(=O)[C@H](CCCCN)NC(=O)[C@H](CC(C)C)NC(=O)[C@H](CC(N)=O)NC(=O)[C@H](CC(N)=O)NC(=O)[C@H](CO)NC(=O)[C@H](CO)NC(=O)[C@H](Cc1c[nH]cn1)NC(=O)[C@H](CCCNC(=N)N)NC(=O)[C@H](CC(C)C)NC(=O)[C@H](Cc1ccccc1)NC(=O)[C@H](CC(=O)O)NC(=O)[C@H](C)NC(=O)[C@H](CC(C)C)NC(=O)[C@H](CCCNC(=N)N)NC(=O)[C@H](CCC(N)=O)NC(=O)[C@@H](NC(=O)[C@H](C)NC(=O)[C@@H]1CSSC[C@H](NC(=O)[C@H](CCCCN)NC(=O)COCCOCCNC(=O)COCCOCCNC(=O)C[C@H](NC(=O)CCCCCCCCCCCCCCCCCCC(=O)O)C(=O)O)C(=O)N[C@@H](CC(N)=O)C(=O)N[C@@H]([C@@H](C)O)C(=O)N[C@@H](C)C(=O)N[C@@H]([C@@H](C)O)C(=O)N1)[C@@H](C)O)C(=O)N[C@@H](CC(C)C)C(=O)N1CCC[C@H]1C(=O)N1CCC[C@H]1C(=O)N[C@H](C(=O)N[C@@H](CC(N)=O)C(=O)N[C@H](C(=O)NCC(=O)N[C@@H](CO)C(=O)N[C@@H](CC(N)=O)C(=O)N[C@H](C(=O)N1C[C@H](O)C[C@H]1C(N)=O)[C@@H](C)O)C(C)C)[C@@H](C)O", "note": "[N2] ({C20 diacid-βAsp-AEEA-AEEA}-KCNTATCATQRLADFLRHSSNNLKPILPPTNVGSNT[Hyp]-NH2; disulfide 2-7 (inferred))", "values": [{"measurement": "oral bioavailability", "setting": "[1]", "value": "extraordinarily high oral bioavailability"}]}, {"molecule": "CC[C@H](C)[C@H](NC(=O)[C@@H]1CCCN1C(=O)CNC(=O)[C@H](Cc1ccccc1)NC(=O)[C@H](CC(N)=O)NC(=O)[C@H](CC(N)=O)NC(=O)[C@H](CO)NC(=O)[C@H](CO)NC(=O)[C@H](Cc1c[nH]cn1)NC(=O)[C@H](CCCNC(=N)N)NC(=O)[C@H](CC(C)C)NC(=O)[C@H](Cc1ccccc1)NC(=O)[C@H](CCC(=O)O)NC(=O)[C@H](C)NC(=O)[C@H](CC(C)C)NC(=O)[C@H](CCCNC(=N)N)NC(=O)[C@H](CCC(N)=O)NC(=O)[C@@H](NC(=O)[C@H](C)NC(=O)[C@@H]1CSSC[C@H](NC(=O)[C@H](CCCCN)NC(=O)CC[C@H](NC(=O)CCCCCCCCCCCCCCCCCCC(=O)O)C(=O)O)C(=O)N[C@@H](CC(N)=O)C(=O)N[C@@H]([C@@H](C)O)C(=O)N[C@@H](C)C(=O)N[C@@H]([C@@H](C)O)C(=O)N1)[C@@H](C)O)C(=O)N[C@@H](CC(C)C)C(=O)N1CCC[C@H]1C(=O)N1CCC[C@H]1C(=O)N[C@H](C(=O)N[C@@H](CC(N)=O)C(=O)N[C@H](C(=O)NCC(=O)N[C@@H](CO)C(=O)N[C@@H](CC(N)=O)C(=O)N[C@H](C(=O)N1CCC[C@H]1C(N)=O)[C@@H](C)O)C(C)C)[C@@H](C)O", "note": "[D1, Cagrilintide]", "values": [{"measurement": "24 h food intake", "setting": "[3]; 30 nmol/kg single s.c. dose", "value": 5.250, "unit": "g"}, {"measurement": "24 h weight change", "setting": "[3]; 30 nmol/kg single s.c. dose", "value": "−6.416", "unit": "%"}, {"measurement": "24 h food intake", "setting": "[3]; 100 nmol/kg single s.c. dose", "value": 2.100, "unit": "g"}, {"measurement": "24 h weight change", "setting": "[3]; 100 nmol/kg single s.c. dose", "value": "−9.103", "unit": "%"}, {"measurement": "purity decrease", "setting": "[4]; Day 7 of the accelerated testing", "value": 12.73, "unit": "%"}, {"measurement": "appearance (clarity) of the solution", "setting": "[4]; Day 26 of the heat accelerated assay", "value": "foreign matters were readily observable"}, {"measurement": "Purity change on 7 d", "setting": "[4]; reversed phase chromatography 214 nm, 40° C., Day 7, purity on 7 d − purity on 0 d", "value": "−12.73", "unit": "%"}]}, {"molecule": "ASQLSTAVLGRLSQELHRLQDYPRTDVGSGSP-NH2", "note": "[M5]", "values": [{"measurement": "EC50, CRE-luciferase reporter in amylin receptor CHO cells, 24 h", "setting": "amylin receptor (hAMY3R) [5]", "value": 0.033, "unit": "nM"}]}]}
